Measured values published in patent US20100267561A1, “HERBICIDAL PYRIDAZINONE DERIVATIVES” (priority 2007, published 2010).

How the values were obtained:
Assay type in all cases: in vivo
[1] = system: umbrella sedge (Cyperus difformis); test: Test B flooded paddy test plant response
Description: (§1) Plant species in the flooded paddy test consisted of rice (Oryza sativa), umbrella sedge (Cyperus difformis), ducksalad (Heteranthera limosa) and barnyardgrass (Echinochloa crus-galli) grown to the 2-leaf stage for testing. At time of treatment, test pots were flooded to 3 cm above the soil surface, treated by application of test compounds directly to the paddy water, and then maintained at that water depth for the duration of the test. Treated plants and controls were maintained in a greenhouse for 13 to 15 days, after which time all species were compared to controls and visually evaluated. Plant response ratings, summarized in Table B, are based on a scale of 0 to 100 where 0 is no effect and 100 is complete control. A dash (-) response means no test result.

[2] = system: barnyardgrass (Echinochloa crus-galli); test: Test B flooded paddy test plant response
Description: as §1

[3] = system: ducksalad (Heteranthera limosa); test: Test B flooded paddy test plant response
Description: as §1

rice (Oryza sativa) = test: Test B flooded paddy test plant response
Description: as §1

[4] = system: giant foxtail (Setaria faberi); test: Test A pre-/postemergence plant response
Description: (§2) Seeds of species selected from barnyardgrass (Echinochloa crus-galli), large crabgrass (Digitaria sanguinalis), giant foxtail (Setaria faberi), blackgrass (Alopecurus myosuroides), canarygrass (Phalaris minor), morningglory (Ipomoea coccinea), pigweed (Amaranthus retroflexus), velvetleaf (Abutilon theophrasti), wheat (Triticum aestivum), and corn (Zea mays) were planted into a blend of loam soil and sand and treated preemergence with a directed soil spray using test chemicals formulated in a non-phytotoxic solvent mixture which included a surfactant. At the same time these species were also treated with postemergence applications of test chemicals formulated in the same manner.
(§3) Plants ranged in height from 2 to 10 cm and were in the one- to two-leaf stage for the postemergence treatment. Treated plants and untreated controls were maintained in a greenhouse for approximately 10 days, after which time all treated plants were compared to untreated controls and visually evaluated for injury. Plant response ratings, summarized in Table A, are based on a 0 to 100 scale where 0 is no effect and 100 is complete control. A dash (-) response means no test results.

[5] = system: barnyardgrass (Echinochloa crus-galli); test: Test A pre-/postemergence plant response
Description: as §2, §3

corn (Zea mays) = test: Test A pre-/postemergence plant response
Description: as §2, §3

[6] = system: morningglory (Ipomoea coccinea); test: Test A pre-/postemergence plant response
Description: as §2, §3

[7] = system: pigweed (Amaranthus retroflexus); test: Test A pre-/postemergence plant response
Description: as §2, §3

[8] = system: wheat (Triticum aestivum); test: Test A pre-/postemergence plant response
Description: as §2, §3

[9] = system: velvetleaf (Abutilon theophrasti); test: Test A pre-/postemergence plant response
Description: as §2, §3

[10] = system: large crabgrass (Digitaria sanguinalis); test: Test A pre-/postemergence plant response
Description: as §2, §3

[11] = Flood (flooded paddy test), 62 g ai/ha, scale 0 to 100, 0 no effect, 100 complete control
[12] = Flood (flooded paddy test), 125 g ai/ha, scale 0 to 100, 0 no effect, 100 complete control
[13] = Flood (flooded paddy test), 250 g ai/ha, scale 0 to 100, 0 no effect, 100 complete control
[14] = Flood, 31 g ai/ha, scale 0 to 100
[15] = Postemergence, 125 g ai/ha, 0 to 100 scale, 0 no effect, 100 complete control
[16] = Postemergence, 500 g ai/ha, 0 to 100 scale, 0 no effect, 100 complete control
[17] = Preemergence, 125 g ai/ha, 0 to 100 scale (0 no effect, 100 complete control)
[18] = Preemergence, 500 g ai/ha, 0 to 100 scale (0 no effect, 100 complete control)
[19] = Postemergence, 62 g ai/ha, 0 to 100 scale, 0 no effect, 100 complete control
[20] = Postemergence, 250 g ai/ha, 0 to 100 scale, 0 no effect, 100 complete control
[21] = Preemergence, 62 g ai/ha, 0 to 100 scale, 0 no effect, 100 complete control
[22] = Preemergence, 250 g ai/ha, 0 to 100 scale (0 no effect, 100 complete control)
[23] = Postemergence, 31 g ai/ha, 0 to 100 scale (0 no effect, 100 complete control)
[24] = Preemergence, 31 g ai/ha, 0 to 100 scale, 0 is no effect, 100 is complete control

Cc1cc(-c2ccc(OC(F)(F)F)cc2)nn1-c1c(OC(=O)OC(C)C)cnn(C)c1=O [Compound 13]
0: Plant response rating, Sedge, Umbrella [1, 11] | Plant response rating, Sedge, Umbrella [1, 12] | Plant response rating, Sedge, Umbrella [1, 13] | Plant response rating, Sedge, Umbrella [1, 14] | Plant response rating, Barnyardgrass [2, 11] | Plant response rating, Barnyardgrass [2, 12] | Plant response rating, Barnyardgrass [2, 13] | Plant response rating, Barnyardgrass [2, 14] | Plant response rating, Ducksalad [3, 11] | Plant response rating, Ducksalad [3, 12] | Plant response rating, Ducksalad [3, 13] | Plant response rating, Ducksalad [3, 14] | Plant response rating, Rice (rice (Oryza sativa); [11]) | Plant response rating, Rice (rice (Oryza sativa); [12]) | Plant response rating, Rice (rice (Oryza sativa); [13]) | Plant response rating, Rice (rice (Oryza sativa); [14]) | Plant response rating, Morningglory [6, 15] | Plant response rating, Morningglory [6, 16] | Plant response rating, Morningglory [6, 17] | Plant response rating, Morningglory [6, 18] | Plant response rating, Pigweed [7, 15] | Plant response rating, Pigweed [7, 16] | Plant response rating, Pigweed [7, 17] | Plant response rating, Pigweed [7, 18] | Plant response rating, Velvetleaf [9, 15] | Plant response rating, Velvetleaf [9, 16] | Plant response rating, Velvetleaf [9, 17]
70: Plant response rating, Foxtail, Giant [4, 15] | Plant response rating, Foxtail, Giant [4, 17] | Plant response rating, Corn (corn (Zea mays); [18]) | Plant response rating, Wheat [8, 18]
30: Plant response rating, Corn (corn (Zea mays); [15])
90: Plant response rating, Barnyardgrass [5, 16] | Plant response rating, Crabgrass, Large [10, 18]
100: Plant response rating, Foxtail, Giant [4, 18] | Plant response rating, Barnyardgrass [5, 18]
20: Plant response rating, Corn (corn (Zea mays); [17]) | Plant response rating, Wheat [8, 17] | Plant response rating, Velvetleaf [9, 18] | Plant response rating, Crabgrass, Large [10, 15]
60: Plant response rating, Barnyardgrass [5, 17] | Plant response rating, Corn (corn (Zea mays); [16]) | Plant response rating, Wheat [8, 16] | Plant response rating, Crabgrass, Large [10, 17]
80: Plant response rating, Foxtail, Giant [4, 16] | Plant response rating, Crabgrass, Large [10, 16]
50: Plant response rating, Barnyardgrass [5, 15] | Plant response rating, Wheat [8, 15]

CCc1cc(-c2ccc(C(F)(F)F)cc2)nn1-c1c(OC(=O)C(C)(C)C)cnn(C)c1=O [Compound 18]
80: Plant response rating, Corn (corn (Zea mays); [19]) | Plant response rating, Wheat [8, 20] | Plant response rating, Crabgrass, Large [10, 19]
70: Plant response rating, Wheat [8, 19]
100: Plant response rating, Foxtail, Giant [4, 20] | Plant response rating, Foxtail, Giant [4, 21] | Plant response rating, Foxtail, Giant [4, 22] | Plant response rating, Barnyardgrass [5, 20] | Plant response rating, Barnyardgrass [5, 21] | Plant response rating, Barnyardgrass [5, 22] | Plant response rating, Wheat [8, 22] | Plant response rating, Crabgrass, Large [10, 20] | Plant response rating, Crabgrass, Large [10, 21] | Plant response rating, Crabgrass, Large [10, 22]
90: Plant response rating, Foxtail, Giant [4, 19] | Plant response rating, Barnyardgrass [5, 19] | Plant response rating, Corn (corn (Zea mays); [20]) | Plant response rating, Corn (corn (Zea mays); [21]) | Plant response rating, Corn (corn (Zea mays); [22]) | Plant response rating, Wheat [8, 21]
0: Plant response rating, Morningglory [6, 19] | Plant response rating, Morningglory [6, 20] | Plant response rating, Morningglory [6, 21] | Plant response rating, Morningglory [6, 22] | Plant response rating, Pigweed [7, 19] | Plant response rating, Pigweed [7, 20] | Plant response rating, Pigweed [7, 21] | Plant response rating, Pigweed [7, 22] | Plant response rating, Velvetleaf [9, 19] | Plant response rating, Velvetleaf [9, 20] | Plant response rating, Velvetleaf [9, 21] | Plant response rating, Velvetleaf [9, 22]

Cc1nc(-c2ccc(C(F)(F)F)cc2)sc1-c1c(O)cnn(C)c1=O [Compound 24]
30: Plant response rating, Barnyardgrass [5, 18]
20: Plant response rating, Corn (corn (Zea mays); [16]) | Plant response rating, Wheat [8, 16]
80: Plant response rating, Foxtail, Giant [4, 18]
60: Plant response rating, Crabgrass, Large [10, 18]
0: Plant response rating, Foxtail, Giant [4, 15] | Plant response rating, Foxtail, Giant [4, 17] | Plant response rating, Barnyardgrass [5, 15] | Plant response rating, Barnyardgrass [5, 17] | Plant response rating, Corn (corn (Zea mays); [15]) | Plant response rating, Corn (corn (Zea mays); [17]) | Plant response rating, Corn (corn (Zea mays); [18]) | Plant response rating, Morningglory [6, 15] | Plant response rating, Morningglory [6, 16] | Plant response rating, Morningglory [6, 17] | Plant response rating, Morningglory [6, 18] | Plant response rating, Pigweed [7, 15] | Plant response rating, Pigweed [7, 16] | Plant response rating, Pigweed [7, 17] | Plant response rating, Pigweed [7, 18] | Plant response rating, Wheat [8, 15] | Plant response rating, Wheat [8, 17] | Plant response rating, Wheat [8, 18] | Plant response rating, Velvetleaf [9, 15] | Plant response rating, Velvetleaf [9, 16] | Plant response rating, Velvetleaf [9, 17] | Plant response rating, Velvetleaf [9, 18] | Plant response rating, Crabgrass, Large [10, 15] | Plant response rating, Crabgrass, Large [10, 17]
10: Plant response rating, Barnyardgrass [5, 16] | Plant response rating, Crabgrass, Large [10, 16]
40: Plant response rating, Foxtail, Giant [4, 16]

Cn1ncc(O)c(-c2nn(-c3ccc(C(F)(F)F)cn3)cc2Br)c1=O [Compound 71]
100: Plant response rating, Foxtail, Giant [4, 17]
20: Plant response rating, Corn (corn (Zea mays); [17]) | Plant response rating, Crabgrass, Large [10, 23]
0: Plant response rating, Foxtail, Giant [4, 24] | Plant response rating, Barnyardgrass [5, 24] | Plant response rating, Corn (corn (Zea mays); [23]) | Plant response rating, Corn (corn (Zea mays); [24]) | Plant response rating, Morningglory [6, 23] | Plant response rating, Morningglory [6, 15] | Plant response rating, Morningglory [6, 24] | Plant response rating, Morningglory [6, 17] | Plant response rating, Pigweed [7, 23] | Plant response rating, Pigweed [7, 15] | Plant response rating, Pigweed [7, 24] | Plant response rating, Pigweed [7, 17] | Plant response rating, Wheat [8, 23] | Plant response rating, Wheat [8, 24] | Plant response rating, Velvetleaf [9, 23] | Plant response rating, Velvetleaf [9, 15] | Plant response rating, Velvetleaf [9, 24] | Plant response rating, Velvetleaf [9, 17]
30: Plant response rating, Foxtail, Giant [4, 23]
10: Plant response rating, Barnyardgrass [5, 23] | Plant response rating, Crabgrass, Large [10, 24]
40: Plant response rating, Barnyardgrass [5, 17] | Plant response rating, Corn (corn (Zea mays); [15])
90: Plant response rating, Foxtail, Giant [4, 15] | Plant response rating, Barnyardgrass [5, 15]
60: Plant response rating, Crabgrass, Large [10, 17]
50: Plant response rating, Wheat [8, 17]
80: Plant response rating, Wheat [8, 15] | Plant response rating, Crabgrass, Large [10, 15]
